The results in this text go back to ChEMBL document CHEMBL1150467, “The identification of a novel renin inhibitor of equivalent efficacy following oral or intravenous administration” (Bioorg Med Chem Lett, 1994).

Each structure is given as a SMILES string.

The target of this assay is T1, Renin (Homo sapiens, UniProt P00797).
T1 sequence (P00797 whole entry): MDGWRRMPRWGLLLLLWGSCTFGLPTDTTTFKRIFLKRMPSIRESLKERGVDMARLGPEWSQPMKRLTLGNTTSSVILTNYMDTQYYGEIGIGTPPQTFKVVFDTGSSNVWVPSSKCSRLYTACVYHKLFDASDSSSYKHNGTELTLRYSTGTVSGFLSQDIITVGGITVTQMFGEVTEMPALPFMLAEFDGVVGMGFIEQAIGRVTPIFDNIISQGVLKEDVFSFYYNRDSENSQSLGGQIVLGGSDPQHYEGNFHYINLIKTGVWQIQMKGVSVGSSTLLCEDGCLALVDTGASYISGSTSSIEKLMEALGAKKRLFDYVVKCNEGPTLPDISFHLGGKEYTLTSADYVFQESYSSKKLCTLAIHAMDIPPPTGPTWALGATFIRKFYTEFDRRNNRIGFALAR
Put plainly: […]. It is filed as cell-free, Plasma.
`CC(C)C[C@H](NC(=O)[C@H](Cc1ccccc1)NC(=O)CC1CS(=O)(=O)c2ccccc21)C(=O)N[C@@H](CC1CCCCC1)[C@@H](O)CC(=O)NCCN1CCOCC1` (some centres not stated) showed an IC50 of 170 nM. Compound `CC(C)C[C@H](NC(=O)[C@H](Cc1ccccc1)NC(=O)CC1CS(=O)(=O)c2ccccc21)C(=O)N[C@@H](CC1CCCCC1)[C@@H](O)CC(=O)NCCCC(=O)O` (some centres not stated) came in with an IC50 of 55 nM. Compound `CC(C)C[C@H](NC(=O)[C@H](Cc1ccccc1)NC(=O)CC1CS(=O)(=O)c2ccccc21)C(=O)N[C@@H](CC1CCCCC1)[C@@H](O)CC(=O)NCCCn1ccnc1` (some centres not stated) registered an IC50 of 12 nM. The value for `CC(C)C[C@H](NC(=O)[C@H](Cc1ccccc1)NC(=O)CCN1C(=O)CS(=O)(=O)c2ccncc21)C(=O)N[C@@H](CC1CCCCC1)[C@@H](O)CC(=O)NCCCn1ccnc1` was 8 nM; that for `CC(C)C[C@H](NC(=O)[C@H](Cc1ccccc1)NC(=O)CC1CS(=O)(=O)c2ccccc21)C(=O)N[C@@H](CC1CCCCC1)[C@@H](O)CC(=O)NCCCN(C)C` (some centres not stated) was 95 nM. The value for `CC(C)C[C@H](NC(=O)[C@H](Cc1ccccc1)NC(=O)CCN1C(=O)COc2ccncc21)C(=O)N[C@@H](CC1CCCCC1)[C@@H](O)CC(=O)NCCCn1ccnc1` was 20 nM. In turn, `CC(C)C[C@H](NC(=O)[C@H](Cc1ccccc1)NC(=O)CCN1C(=O)CSc2cnccc21)C(=O)N[C@@H](CC1CCCCC1)[C@@H](O)CC(=O)NCCCn1ccnc1` had an IC50 of 4 nM. The compound `CC(C)C[C@H](NC(=O)[C@H](Cc1ccccc1)NC(=O)CN1C(=O)CSc2ccncc21)C(=O)N[C@@H](CC1CCCCC1)[C@@H](O)CC(=O)NCCCn1ccnc1` showed an IC50 of 38 nM. `CC(C)C[C@H](NC(=O)[C@H](Cc1ccccc1)NC(=O)CC1CS(=O)(=O)c2ccccc21)C(=O)N[C@@H](CC1CCCCC1)[C@@H](O)CC(=O)NCCn1ccnc1` (some centres not stated) yielded an IC50 of 41 nM. To `CC(C)CCNC(=O)C[C@H](O)[C@H](CC1CCCCC1)NC(=O)[C@H](CC(C)C)NC(=O)[C@H](Cc1ccccc1)NC(=O)CC1CS(=O)(=O)c2ccccc21` (some centres not stated) belongs 10 nM; to `CC(C)C[C@H](NC(=O)[C@H](Cc1ccccc1)NC(=O)CCCN1C(=O)CSc2ccncc21)C(=O)N[C@@H](CC1CCCCC1)[C@@H](O)CC(=O)NCCCn1ccnc1`, 14 nM; to `CC(C)C[C@H](NC(=O)[C@H](Cc1ccccc1)NC(=O)CC1CS(=O)(=O)c2ccccc21)C(=O)N[C@@H](CC1CCCCC1)[C@@H](O)CC(=O)NCCCc1cccnc1` (some centres not stated), 34 nM.
